From BindingDB's records for patent US20260070887 (Shenzhen Zhongge Biological Technology Co., 2026)

Molecular target: T1, Kinesin-like protein KIF18A (Homo sapiens, UniProt Q8NI77)
T1 sequence (Q8NI77 whole entry): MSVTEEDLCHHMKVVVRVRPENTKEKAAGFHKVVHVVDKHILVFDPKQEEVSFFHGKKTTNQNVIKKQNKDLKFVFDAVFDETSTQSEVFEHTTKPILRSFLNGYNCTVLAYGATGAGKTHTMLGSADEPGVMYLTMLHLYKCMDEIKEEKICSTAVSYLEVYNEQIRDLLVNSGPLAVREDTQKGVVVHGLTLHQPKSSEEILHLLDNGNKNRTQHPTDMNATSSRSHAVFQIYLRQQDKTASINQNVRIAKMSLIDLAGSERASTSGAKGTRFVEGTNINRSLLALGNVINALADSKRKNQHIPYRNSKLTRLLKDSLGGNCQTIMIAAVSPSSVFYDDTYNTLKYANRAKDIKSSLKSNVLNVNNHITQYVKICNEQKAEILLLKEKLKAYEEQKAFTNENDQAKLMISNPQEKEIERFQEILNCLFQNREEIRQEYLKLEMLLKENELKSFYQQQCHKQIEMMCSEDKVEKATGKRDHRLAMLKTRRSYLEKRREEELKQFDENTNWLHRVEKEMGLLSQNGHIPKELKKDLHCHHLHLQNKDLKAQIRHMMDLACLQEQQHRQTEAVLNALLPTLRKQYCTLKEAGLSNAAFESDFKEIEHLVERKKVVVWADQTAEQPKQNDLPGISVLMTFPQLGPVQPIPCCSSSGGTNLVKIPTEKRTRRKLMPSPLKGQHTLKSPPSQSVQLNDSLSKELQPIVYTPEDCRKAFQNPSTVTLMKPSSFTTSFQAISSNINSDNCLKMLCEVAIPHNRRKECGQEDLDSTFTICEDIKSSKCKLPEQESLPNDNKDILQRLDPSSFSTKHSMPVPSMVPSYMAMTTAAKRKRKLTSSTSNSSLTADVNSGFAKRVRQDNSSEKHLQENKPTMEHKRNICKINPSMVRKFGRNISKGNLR
Assay: Assay of the Inhibitory Effects on KIF18A Activity In Vitro (ADP-Glo Assay)
Procedure: Experimental Method 1. Preparation of 30 mL of reaction buffer: (1) 450 μL 1M Tris-HCl (pH=7.5)+300 μL 1M MgCl2+30 μL 10% Pluronic F-68 (ThermoFisher, 24040032-100 ml); (2) adjusting pH to 7.5, and adding water to adjust the volume to 30 mL. 2. Preparation of a 5 mg/mL pig microtubule (Microtubules; MT) (Cytoskeleton Inc, MT002) stock solution: (1) 10 mL PM buffer=150 μL 1 M PIPES (pH 7.0)+20 μL 0.5 mM MgCl2+100 μL 2 mM Taxol (Cytoskeleton Inc, TXD01)+9730 μL water. (2) MT (500 ag/tube): Adding 100 μL PM buffer to prepare a 5 mg/mL stock solution. Keeping the MT (Cytoskeleton Inc, MT002) at room temperature for 10-15 minutes, gently mixing and storing same at −80° C. 3. Preparation of 2 mL of kinase buffer: 2 mL reaction buffer+1 μL 2 mM Taxol (Cytoskeleton Inc, TXD01)+12 μL 5 mg/mL MT (Cytoskeleton Inc, MT002). 4. Preparation of 2×KIF18A (30 nM) (ChemPartner, CPB-P22-31645) working solution: 2.4 μL 10 μM KIF18A (ChemPartner, CPB-P22-31645)+800 μL 1× kinase buffer. 5. Preparation of 2×ATP (150 μM) (Promega, G9101) working solution: 12 μL 10 mM ATP+800 μL 1× kinase buffer. 6. 25 nL of compound was transferred to a 384-well plate using Echo650. 7. 2.5 μL of 2×KIF18A from Step 4 (final concentration of 30 nM) was added to the 384-well plate and the plate was incubated at 25° C. for 15 minutes. 8. 2.5 μL of 2×ATP from Step 5 (final concentration of 150 μM) was added to the 384-well plate and the plate was incubated at 25° C. for 15 minutes. 9. 5 μL ADP-Glo™ Reagent (Promega, G9101) was added to the 384-well plate and the plate was incubated at 25° C. for 40 minutes. 10. 10 μL of kinase detection reagent (Promega, G9101) was added to the 384-well plate and the plate was incubated at 25° C. for 40 minutes. 11. Luminescence values were measured using the EnVision Xcite Multilabel Reader (PerkinElmer, 2105-0020).

Row | SMILES | IC50
1 | CC1(C)Cn2c(cc3c(NC(=O)c4ccc(NS(=O)(=O)c5ccc(N)cc5CCO)cc4N4CCC5(CC4)CC5)ccc(F)c32)CO1 [US20260070887, Example 519] | in the range around 275 nM
2 | CC1(C)Cn2c(cc3c(NC(=O)c4ccc(NS(=O)(=O)CCO)cc4N4CCC(=C(F)F)CC4)ccc(Cl)c32)CO1 [US20260070887, Example 522] | < 50 nM
3 | COc1ccc(C(=O)Nc2cccc3c2ccn3CC2CC2)c(N2CCC3(CC2)CC3)c1 [US20260070887, Example 127] | < 50 nM
4 | Nc1ccc(S(=O)(=O)Nc2ccc(C(=O)Nc3ccnc4c3CCN4CC3CC3)c(N3CCC4(CC3)CC4)c2)c(CCO)c1 [US20260070887, Example 32] | in the range around 275 nM
5 | CC1(C)Cn2c(cc3c(NC(=O)c4cnc(NS(=O)(=O)CCO)cc4N4CCC5(CC4)CC5)cccc32)CO1 [US20260070887, Example 454] | < 50 nM
6 | COc1ccc(NC(=O)c2ccc(NS(=O)(=O)CCO)cc2N2CCC3(CC2)CC3)c2cc3n(c12)CCOC3 [US20260070887, Example 404] | < 50 nM

The remaining lines, values ahead:

Row | IC50 | SMILES
7 | < 50 nM | Nc1ccc(S(=O)(=O)Nc2ccc(C(=O)Nc3ccnc4c3ccn4CC3CC3)c(N3CCC4(CC3)CC4)c2)c(CCO)c1 [US20260070887, Example 33]
8 | < 50 nM | COC1c2cc3c(NC(=O)c4ccc(NS(=O)(=O)CCO)cc4N4CCC(=C(F)F)CC4)ccc(C#N)c3n2CCC1(F)F (centres undefined) [US20260070887, Example 427]
9 | < 50 nM | COc1ccc(NC(=O)c2ccc(NS(=O)(=O)CCO)cc2N2CCC3(CC2)CC3)c2cc3n(c12)CCC(F)(F)C3 [US20260070887, Example 478]
